Test results published in article PMC8815074, “Development of ^11C-Labeled ASEM Analogues for the Detection of Neuronal Nicotinic Acetylcholine Receptors (α7-nAChR)” (ACS Chemical Neuroscience, 2022).

Biological target: T1, α7-nAChR (Rattus norvegicus, UniProt Q05941)
T1 construct: gene Chrna7; native receptor in rat brain sections
Test: radioligand autoradiography ([…] and 3H, […]) with blocking by ASEM and unlabeled KIn-83
Conditions: read-out: % of total binding displaced at 10 uM

T1 sequence (Q05941 23-502): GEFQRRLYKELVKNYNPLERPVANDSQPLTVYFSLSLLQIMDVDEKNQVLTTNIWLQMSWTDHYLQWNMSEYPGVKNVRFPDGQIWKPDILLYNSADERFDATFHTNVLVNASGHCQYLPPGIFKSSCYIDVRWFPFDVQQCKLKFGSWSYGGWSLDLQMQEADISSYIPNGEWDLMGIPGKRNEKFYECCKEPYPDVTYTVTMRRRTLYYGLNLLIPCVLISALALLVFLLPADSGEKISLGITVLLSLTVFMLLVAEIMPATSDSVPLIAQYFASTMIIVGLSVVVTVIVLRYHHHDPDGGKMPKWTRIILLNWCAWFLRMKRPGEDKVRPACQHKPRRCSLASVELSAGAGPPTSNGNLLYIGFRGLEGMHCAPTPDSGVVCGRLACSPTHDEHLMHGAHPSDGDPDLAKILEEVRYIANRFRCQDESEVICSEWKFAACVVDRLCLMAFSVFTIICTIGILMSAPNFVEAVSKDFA

COc1cccc2c1S(=O)(=O)c1cc(N3CCN4CCC3CC4)ccc1-2 [KIn-83] was tested, and the inhibition at 10 µM was 80%.
